In US20230053437A1, “LIPID COMPOUNDS AND LIPID NANOPARTICLE COMPOSITIONS” (Suzhou Abogen Biosciences Co., Ltd., priority 2020, published 2023):

Key:
Type in all cases: physicochemical
[1] = Apparent pKa of LNP formulations, TNS fluorescence assay; details: LNP cationic lipid/DSPC/cholesterol/DMG-PEG 50/10/38.5/1.5 mol %, pH 3 to 9
Protocol: As reported in literature, the apparent pKa of LNP formulations correlates with the delivery efficiency of LNPs for nucleic acids in vivo. The apparent pKa of each formulation was determined using an assay based on fluorescence of 2-(p-toluidino)-6-napthalene sulfonic acid (TNS). LNP formulations comprising of cationic lipid/DSPC/cholesterol/DMG-PEG (50/10/38.5/1.5 mol %) in PBS were prepared as described above. TNS was prepared as a 300 uM stock solution in distilled water. LNP formulations were diluted to 0.1 mg/ml total lipid in 3 mL of buffered solutions containing 50 mM sodium citrate, 50 mM sodium phosphate, 50 mM sodium borate, and 30 mM sodium chloride where the pH ranged from 3 to 9. An aliquot of the TNS solution was added to give a final concentration of 0.1 mg/ml and following vortex mixing fluorescence intensity was measured at room temperature in a Molecular Devices Spectramax iD3 spectrometer using excitation and mission wavelengths of 325 nm and 435 nm. A sigmoidal best fit analysis was applied to the fluorescence data and the pKa value was measured as the pH giving rise to half-maximal fluorescent intensity.

[2] = Encapsulation efficiency of lipid nanoparticles, Quant-it Ribogreen RNA quantification assay; details: LNP with hEPO mRNA
Protocol: (§1) Briefly, a cationic lipid provided herein, DSPC, cholesterol, and PEG-lipid were solubilized in ethanol at a molar ratio of 50:10:38.5:1.5, and mRNA were diluted in 10 to 50 mM citrate buffer, pH=4. The LNPs were prepared at a total lipid to mRNA weight ratio of approximately 10:1 to 30:1 by mixing the ethanolic lipid solution with the aqueous mRNA solution at a volume ratio of 1:3 using a microfluidic apparatus, total flow rate ranging from 9-30 mL/min. Ethanol were thereby removed and replaced by DPBS using dialysis. Finally, the lipid nanoparticles were filtered through a […] sterile filter.
(§2) Lipid nanoparticle size were determined by dynamic light scattering using a Malvern Zetasizer Nano ZS (Malvern UK) using a 173° backscatter detection mode. The encapsulation efficiency of lipid nanoparticles were determined using a Quant-it Ribogreen RNA quantification assay kit (Thermo Fisher Scientific, UK) according to the manufacturer's instructions.

[3] = Lipid nanoparticle size by dynamic light scattering (Malvern Zetasizer Nano ZS); details: LNP: cationic lipid/DSPC/cholesterol/PEG-lipid 50:10:38.5:1.5 with hEPO mRNA
Protocol: as §1, §2

| SMILES | Apparant Pka [1] | Encapsulation Efficiency [2] | polydispersity [3] | size (nm) [3] |
| --- | --- | --- | --- | --- |
| CCCCCCCCCCCC(=O)OCC1(COC(=O)CCCCCCCCCCC)CCN(C(=O)CCN2CCCCCCC2)CC1 [Compound 8] | 7.58 | 91.6% | 0.227 | 74.14 nm |
| CCCCCCCCCCCC(=O)OCC1(COC(=O)CCCCCCCCCCC)CCN(C(=O)CCN(C)CCCNc2c(N(C)C)c(=O)c2=O)CC1 [Compound 12] | 7.45 | 95.8% | 0.23 | 98.67 nm |
| CCCCCCCCCCCC(=O)OCC1(COC(=O)CCCCCCCCCCC)CCN(C(=O)CCN(CCO)CCCCC)CC1 [Compound 25] | 7.98 | 89.3% | 0.153 | 69.62 nm |
| CCCCCCCCCCCC(=O)OCC1(COC(=O)CCCCCCCCCCC)CCN(C(=O)CCN(CCO)C(C)C)CC1 [Compound 23] | 7.68 | 93.0% | 0.078 | 77.29 nm |
| CCCCCCCCC(CCCCCC)COC(=O)CCCCCC(=O)OCC1(COC(=O)CCCCCC(=O)OCC(CCCCCC)CCCCCCCC)CCN(C(=O)CCCN2CCCCC2)CC1 (centres unmarked) [Compound 59] | 11.77 | 102.1% | 0.378 | 109.8 nm |
| CCCCCCCCC(CCCCCC)COC(=O)CCCCCC(=O)OCC1(COC(=O)CCCCCC(=O)OCC(CCCCCC)CCCCCCCC)CCN(C(=O)CCN(C)C)CC1 (centres unmarked) [Compound 51] | 7.46 | 101.7% | 0.424 | 103.3 nm |
| CCCCCCCCCCCC(=O)OCC1(COC(=O)CCCCCCCCCCC)CCN(C(=O)CCN2CCCCC2)CC1 [Compound 6] | 6.85 | 89.2% | 0.064 | 100 nm |
| CCCCCCCCCCCC(=O)OCC1(COC(=O)CCCCCCCCCCC)CCN(C(=O)CCN(C)CCCn2ccc(=O)[nH]c2=O)CC1 [Compound 13] | 7.09 | 95.5% | 0.127 | 57.44 nm |
| CCCCCCCCCCCC(=O)OCC1(COC(=O)CCCCCCCCCCC)CCN(C(=O)CCN(CCO)CCCCCC)CC1 [Compound 26] | 7.57 | 89.7% | 0.138 | 91.83 nm |
| CCCCCCCCCCCC(=O)OCC1(COC(=O)CCCCCCCCCCC)CCN(C(=O)CCCN(C)C)CC1 [Compound 38] | 7.85 | 93.5% | 0.104 | 73.39 nm |
| CCCCCCCCCCCC(=O)OCC1(COC(=O)CCCCCCCCCCC)CCN(C(=O)CCN(CCO)CCCC)CC1 [Compound 24] | 7.98 | 93.6% | 0.165 | 71.61 nm |
| CCCCCCCCCCCC(=O)OCC1(COC(=O)CCCCCCCCCCC)CCN(C(=O)CCN(CCCCCC)CCCNc2c(N(C)C)c(=O)c2=O)CC1 [Compound 49] | 4.76 | 95.8% | 0.291 | 87.3 nm |
| CCCCCCCCCCCC(=O)OCC1(COC(=O)CCCCCCCCCCC)CCN(C(=O)CCN(C)CCO)CC1 [Compound 2] | 7.29 | 92.5% | 0.079 | 80.24 nm |
| CCCCCCCCCCCCCC(=O)OCC1(COC(=O)CCCCCCCCCCCCC)CCN(C(=O)CCN(CCCCCC)CCCCCC)CC1 [Compound 33] | 6.06 | 89.9% | 0.106 | 87.01 nm |
| CCCCCCCCCCCC(=O)OCC1(COC(=O)CCCCCCCCCCC)CCN(C(=O)CCN(CCCCC)CCCNc2c(N(C)C)c(=O)c2=O)CC1 [Compound 48] | 7.17 | 98.3% | 0.133 | 85.67 nm |
| CCCCCCCCC(CCCCCC)COC(=O)CCCCCC(=O)OCC1(COC(=O)CCCCCC(=O)OCC(CCCCCC)CCCCCCCC)CCN(C(=O)CCN2CCCCCC2)CC1 (centres unmarked) [Compound 54] | 8.31 | 99.7% | 0.168 | 84.09 nm |
| CCCCCCCCCCCC(=O)OCC1(COC(=O)CCCCCCCCCCC)CCN(C(=O)CCN(CCO)CCO)CC1 [Compound 4] | 7.18 | 92.8% | 0.199 | 64.29 nm |
| CCCCCCCCCCCC(=O)OCC1(COC(=O)CCCCCCCCCCC)CCN(C(=O)CCCN(CCO)CCCC)CC1 [Compound 37] | 6.04 | 94.9% | 0.386 | 95.98 nm |
| CCCCC/C=C\C/C=C\CCCCCCCC(=O)OCC1(COC(=O)CCCCCCC/C=C\C/C=C\CCCCC)CCN(C(=O)CCN2CCCC2)CC1 [Compound 50] | 10.76 | 97.8% | 0.327 | 86.44 nm |
| CCCCCCCCCCCC(=O)OCC1(COC(=O)CCCCCCCCCCC)CCN(CCCCO)CC1 [Compound 19] | 7.93 | 94.5% | 0.137 | 66.82 nm |
| CCCCCCCCCOC(=O)CCC1(CCC(=O)OCCCCCCCCC)CCN(C(=O)CCN(C)C)CC1 [Compound 63] | 7.859 | 97.4% | 0.113 | 82.74 nm |
| CCCCCCCCCCCC(=O)OCC1(COC(=O)CCCCCCCCCCC)CCN(C(=O)CCN(CCCCCC)CCCCCC)CC1 [Compound 31] | 6.39 | 92.7% | 0.136 | 67.72 nm |
| CCCCCCCCCCCC(=O)OCC1(COC(=O)CCCCCCCCCCC)CCN(C(=O)CCCN2CCCCCC2)CC1 [Compound 41] | ~12.82 | 96.1% | 0.15 | 90.15 nm |
